# Experimental data published in US9403916B2, “Polysaccharide-and polypeptide-based block copolymers, vesicles constituted by these copolymers and use thereof” (priority 2008, dated 2016).
# Key:
# cells of rat glioma C6 = test: Cellular viability (toxicity) MTT test; assay type: cell-based; conditions: 48 h, read-out: IC50 (concentration for which half of the cells remain viable)
# Protocol: Experiments of toxicity and release in vitro were performed using vesicles based on hyaluronic acid-block-poly(γ-benzyl L-glutamate) diblock copolymer prepared in Example 6, containing 11% of doxorubicin. The in-vitro experiments were performed on cells of rat glioma C6, in Dulbecco's modified Eagle's medium (DMEM) containing 5% of foetal calf serum. The C6 cells (5×10^5 cells) are placed in bottles of 10 cm diameter and are grown in 10 ml of culture medium containing penicillin (10000 μg/mL), streptomycin (10000 μg/mL) and amphotericin B (25 μg/mL) [Invitrogen Corporation] in an incubator at 37° C. in a controlled atmosphere with 5% CO2. For the tests of cellular viability (or toxicity), C6 cells were incubated in a 24-well plate (15×10^4 cells per well), for 24 h. Viability was determined by a conventional test with tetrazolium salt MTT (3-(4,5-dimethylthiazol-2-yl)-2,5-diphenyl tetrazolium bromide). The tetrazolium that it contains is reduced to formazan by the mitochondrial succinate dehydrogenase of the active living cells. The colour of the medium then changes from yellow to purplish-blue. The intensity of this coloration is proportional to the number of living cells present during the test. Analysis is performed by spectrophotometry (U-2800A, HITACHI), measuring the absorbance at 570 nm. […]
# [1] = test system: DMBA-induced tumour in female Sprague-Dawley rats; test: Antitumour efficacy in DMBA-induced tumour, tumour regression and survival; assay type: in vivo; conditions: rat, single intravenous dose 5 mg/kg doxorubicin
# Protocol: Female Sprague-Dawley rats aged 8 weeks (120-140 g) were used in a study of tumour regression.
# 7,12-dimethylbenz[α]anthracene (DMBA) was administered orally (in soya oil) to the animals in 3 doses of 45 mg/kg at one-week intervals, to generate the tumour.
# The treatment with doxorubicin was given 10 weeks after the last dose of DMBA. The width of the tumour (w) and its length (l) were recorded with callipers and the size of the tumour was calculated from the formula (w×l^2/2).
# After 10 weeks from tumour induction, the animals with tumours were separated and divided randomly into different treatment groups, then treated with a single dose of 250 μl of doxorubicin by intravenous route at 5 mg/kg, either in the form of free doxorubicin, or in the form of doxorubicin encapsulated in the micellar vesicles of Example 6.
# The control group received a single dose of 250 μl of PBS buffer (pH 7.4) by the intravenous route.
# The study was terminated […] after treatment.
# Observation of the survival of the animals with a tumour, which were treated, was continued until 60 days after treatment.
compound,measurement,setting,value
"COc1cccc2c1C(=O)c1c(O)c3c(c(O)c1C2=O)C[C@@](O)(C(=O)CO)C[C@@H]3O[C@H]1C[C@H](N)[C@H](O)[C@H](C)O1 [free doxorubicin, doxorubicin]",IC50,cells of rat glioma C6,840 nM
same,tumour growth in comparison with control group treated with PBS,[1],significantly inhibit tumour growth
same,tumour regression after 15 days of treatment,[1],regression reaches a plateau
